The record followed here is patent US11655258B2, “Heterocycle derivatives as pesticides” (BAYER AKTIENGESELLSCHAFT, priority 2017, dated 2023).

Series [1] deals with Ctenocephalides felis. Put plainly: Ctenocephalides felis oral test. It counts as in vivo. As to conditions: application rate 100 ppm in citrated cattle blood, after 2 days. How it is done: Ctenocephalides felis—Oral Test • Solvent: dimethyl sulfoxide
To produce a suitable active compound formulation, 10 mg of active compound are mixed with 0.5 ml of dimethyl sulfoxide. Dilution with citrated cattle blood gives the desired concentration.
About 20 unfed adult cat fleas (Ctenocephalides felis) are placed into a chamber which is closed at the top and bottom with gauze. A metal cylinder whose bottom end is closed with parafilm is placed onto the chamber. The cylinder contains the blood/active compound formulation, which can be imbibed by the fleas through the parafilm membrane.
After 2 days, the kill in % is determined. 100% means that all of the fleas have been killed; 0% means that none of the fleas have been killed.

Series [2] relates to Myzus persicae. As to the kind of experiment: Myzus persicae oral test. It counts as in vivo. As to conditions: 120 h, application rate 4 ppm, after 5 days, read-out: efficacy. How it is done: Myzus persicae Oral Test • Solvent: 100 parts by weight of acetone
To produce a suitable preparation of active compound, 1 part by weight of active compound is dissolved using the specified parts by weight of solvent and made up with water until the desired concentration is attained.
50 μl of the active compound preparation are transferred into microtitre plates and made up to a final volume of 200 μl with 150 μl of IPL41 insect medium (33%+15% sugar). Subsequently, the plates are sealed with parafilm, which a mixed population of green peach aphids (Myzus persicae) within a second microtitre plate is able to puncture and imbibe the solution through.
(§1) After 5 days, the efficacy in % is determined. 100% means that all the aphids have been killed; 0% means that no aphids have been killed.

The test system of another series is Boophilus microplus. Put plainly: Boophilus microplus injection test. Format: in vivo. As to conditions: application rate 20 μg/animal, laying of fertile eggs after 7 days. How it is done: Boophilus microplus Injection Test • Solvent: dimethyl sulfoxide
To produce a suitable active compound formulation, 10 mg of active compound are mixed with 0.5 ml of solvent and the concentrate is diluted to the desired concentration with solvent.
1 μl of the active compound solution is injected into the abdomen of 5 engorged adult female cattle ticks (Boophilus microplus). The animals are transferred into dishes and kept in a climate-controlled room.
Efficacy is assessed after 7 days by laying of fertile eggs. Eggs which are not visibly fertile are stored in a climate-controlled cabinet until the larvae hatch after about 42 days. An efficacy of 100% means that none of the ticks has laid any fertile eggs; 0% means that all the eggs are fertile.

Another series has as its system Spodoptera frugiperda. As to the kind of experiment: Spodoptera frugiperda spray test. It counts as in vivo. As to conditions: application rate 100 g/ha, after 7 days. How it is done:
Spodoptera frugiperda—Spray Test • Solvent: 78.0 parts by weight of acetone • 1.5 parts by weight of dimethylformamide • Emulsifier: alkylaryl polyglycol ether
(§2) To produce a suitable active compound preparation, 1 part by weight of active compound is dissolved using the stated parts by weight of solvent and made up with water containing an emulsifier concentration of 1000 ppm until the desired concentration is attained. To produce further test concentrations, the formulation is diluted with emulsifier-containing water.
Leaf discs of maize (Zea mays) are sprayed with an active compound formulation of the desired concentration and, after drying, populated with caterpillars of the fall armyworm (Spodoptera frugiperda).
After 7 days, the efficacy in % is determined. 100% means that all the caterpillars have been killed; 0% means that no caterpillar has been killed.

The test system of series [3] is Myzus persicae. Put plainly: Myzus persicae drench test (MYZUPE D), savoy cabbage. As to conditions: soil, 240 h, 10 dat, read-out: % efficacy. It counts as in vivo. How it is done: Myzus persicae—Drench Test (MYZUPE D) • Solvent: 7 parts by weight of dimethylformamide • Emulsifier: 2 parts by weight of alkylaryl polyglycol ether
To produce a suitable active compound preparation, 1 part by weight of active compound is mixed with the specified amounts of solvent and emulsifier, and the concentrate is diluted with water to the desired concentration, it being necessary to include the volume of soil which is drenched in the calculation. It should be ensured that a concentration of 40 ppm of emulsifier in the soil is not exceeded. To produce further test concentrations, water is used for dilution.
Savoy cabbage (Brassica oleracea) in pots with soil and infested by all stages of the green peach aphid (Myzus persicae) is watered with an active compound preparation of the desired concentration.
After the desired period of time, the efficacy in % is determined. 100% means that all the aphids have been killed; 0% means that no aphids have been killed.

The subject of series [4] is Ctenocephalides felis. As to the kind of experiment: Ctenocephalides felis in vitro contact test with adult cat fleas. Format: in vivo. As to conditions: application rate 5 μg/cm^2 (=500 g of ai/ha), after 48 h. How it is done: Ctenocephalides felis—In Vitro Contact Tests with Adult Cat Fleas
(§3) For the coating of the test tubes, 9 mg of active compound are first dissolved in 1 ml of acetone p.a. and then diluted to the desired concentration with acetone p.a. 250 μl of the solution are distributed homogeneously on the inner walls and the base of a 25 ml glass tube by turning and rocking on an orbital shaker (rocking rotation at 30 rpm for 2 h). With 900 ppm of active compound solution and internal surface area 44.7 cm^2, given homogeneous distribution, an area-based dose of 5 μg/cm^2 is achieved.
After the solvent has evaporated off, the tubes are populated with 5-10 adult cat fleas (Ctenocephalides felis), sealed with a perforated plastic lid and incubated in a horizontal position at room temperature and ambient humidity. After 48 h, efficacy is determined. To this end, the tubes are stood upright and the fleas are knocked to the base of the tube. Fleas which remain motionless at the base or move in an uncoordinated manner are considered to be dead or moribund.
100% efficacy means that all the fleas were dead or moribund. 0% efficacy means that no fleas were harmed.

For the next series, the system named is Phaedon cochleariae. As to the kind of experiment: Phaedon cochleariae spray test. As to conditions: 168 h, after 7 days, read-out: efficacy; for pest or weed control at 20 g/ha: application rate 20 g/ha; for pest or weed control at 100 g/ha: application rate 100 g/ha. It counts as in vivo. How it is done:
Phaedon cochleariae—Spray Test • Solvent: 78.0 parts by weight of acetone • 1.5 parts by weight of dimethylformamide • Emulsifier: alkylaryl polyglycol ether
as §2
Discs of Chinese cabbage leaves (Brassica pekinensis) are sprayed with an active compound formulation of the desired concentration and, after drying, populated with larvae of the mustard beetle (Phaedon cochleariae).
After 7 days, the efficacy in % is determined. 100% means that all the beetle larvae have been killed; 0% means that no beetle larvae have been killed.

The test system of the next series is Aphis gossypii. As to the kind of experiment: Aphis gossypii spray test (APHIGO). It counts as in vivo. As to conditions: 144 h, 6 dat, read-out: % efficacy. How it is done:
Aphis gossypii Spray Test (APHIGO) • Solvent: 14 parts by weight of dimethylformamide • Emulsifier: alkylaryl polyglycol ether
(§4) To produce a suitable active compound preparation, 1 part by weight of active compound is dissolved using the stated parts by weight of solvent and made up with water containing an emulsifier concentration of 1000 ppm until the desired concentration is attained. To produce further test concentrations, the formulation is diluted with emulsifier-containing water. If the addition of ammonium salts or/and penetrants is required, these are each added in a concentration of 1000 ppm to the formulation solution.
Cotton plants (Gossypium hirsutum) heavily infested by the cotton aphid (Aphis gossypii) are sprayed with an active compound formulation of the desired concentration.
After the desired time, the kill in % is determined. 100% means that all the aphids have been killed; 0% means that no aphids have been killed.

The test system of another series is Nilaparvata lugens. As to the kind of experiment: Nilaparvata lugens spray test (NILALU). Format: in vivo. As to conditions: 96 h, 500 g/ha, 4 dat, read-out: % efficacy. On the procedure: Nilaparvata lugens—Spray Test (NILALU) • Solvent: 52.5 parts by weight of acetone • 7 parts by weight of dimethylformamide • Emulsifier: alkylaryl polyglycol ether
as §4
Rice plants (Oryza sativa) are sprayed with an active ingredient formulation of the desired concentration and then populated with larvae of the brown planthopper (Nilaparvata lugens).
After the desired period of time, the efficacy in % is determined. 100% means that all of the planthoppers have been killed; 0% means that none of the planthoppers have been killed.

The next series has as its system Lucilia cuprina. Put plainly: Lucilia cuprina test. It counts as in vivo. As to conditions: application rate 100 ppm, L1 larvae, after 2 days. How it is done: Lucilia cuprina Test • Solvent: dimethyl sulfoxide
(§5) To produce a suitable active compound formulation, 10 mg of active compound are mixed with 0.5 ml of dimethyl sulfoxide, and the concentrate is diluted with water to the desired concentration.
About 20 L1 larvae of the Australian sheep blowfly (Lucilia cuprina) are transferred into a test vessel containing minced horsemeat and the active compound formulation of the desired concentration.
After 2 days, the kill in % is determined. 100% means that all the larvae have been killed; 0% means that no larvae have been killed.

Series [5] can be described thus: log P by HPLC on reversed-phase column (EEC Directive 79/831 Annex V.A8). It counts as physicochemical. As to conditions: reversed-phase HPLC column (C18); pH 7.8, 0.001 molar aqueous ammonium bicarbonate/acetonitrile, 55° C.; read-out: log P (neutral). How it is done: The log P values are measured according to EEC Directive 79/831 Annex V.A8 by HPLC (high-performance liquid chromatography) on a reversed-phase column (C 18). Temperature: 55° C.
The LC-MS determination in the neutral range is effected at pH 7.8 with 0.001 molar aqueous ammonium bicarbonate solution and acetonitrile as mobile phases; linear gradient from 10% acetonitrile to 95% acetonitrile. Called log P (neutral) in the table.
Calibration is carried out using unbranched alkan-2-ones (having 3 to 16 carbon atoms) with known Log P values (Log P values determined on the basis of the retention times by linear interpolation between two successive alkanones).

Series [6] has as its system Myzus persicae. As to the kind of experiment: Myzus persicae spray test (MYZUPE S), bell pepper plants. As to conditions: 144 h, 6 dat, read-out: % efficacy. It counts as in vivo. On the procedure:
Myzus persicae—Spray Test (MYZUPE S) • Solvent: 14 parts by weight of dimethylformamide • Emulsifier: alkylaryl polyglycol ether
as §4
Bell pepper plants (Capsicum annuum) severely infested with the green peach aphid (Myzus persicae) are treated by spraying with the active compound formulation in the desired concentration.
After the desired time, the kill in % is determined. 100% means that all the animals have been killed; 0% means that no animals have been killed.

For the next series, the system named is Rhipicephalus sanguineus. Put plainly: Rhipicephalus sanguineus in vitro contact test with adult brown dog ticks. It counts as in vivo. As to conditions: application rate 1 μg/cm^2 (=100 g of ai/ha), after 48 h. How it is done:
Rhipicephalus sanguineus—In Vitro Contact Tests with Adult Brown Doe Ticks
as §3
After the solvent has evaporated off, the tubes are populated with 5-10 adult dog ticks (Rhipicephalus sanguineus), sealed with a perforated plastic lid and incubated in a horizontal position in the dark at room temperature and ambient humidity. After 48 h, efficacy is determined. To this end, the ticks are knocked to the base of the tube and incubated on a hotplate at 45-50° C. for not more than 5 min. Ticks which remain motionless on the base or move in such an uncoordinated manner that they are unable to deliberately avoid the heat by climbing upwards are considered to be dead or moribund.
An efficacy of 100% means that all the ticks were dead or moribund. 0% efficacy means that none of the ticks were harmed.

In series [7] the test system is Myzus persicae. As to the kind of experiment: Myzus persicae spray test (Chinese cabbage leaf discs). As to conditions: foliar, 120 h, application rate 100 g/ha, after 5 days, read-out: efficacy. Format: in vivo. How it is done:
Myzus persicae Spray Test • Solvent: 78 parts by weight of acetone • 1.5 parts by weight of dimethylformamide • Emulsifier: alkylaryl polyglycol ether
as §2
Discs of Chinese cabbage leaves (Brassica pekinensis) infested by all stages of the green peach aphid (Myzus persicae) are sprayed with an active compound formulation of the desired concentration.
as §1

The subject of a further series is Musca domestica. Put plainly: Musca domestica test. Format: in vivo. As to conditions: application rate 100 ppm, adult houseflies, after 2 days. How it is done: Musca domestica Test • Solvent: dimethyl sulfoxide
as §5
Vessels containing a sponge treated with sugar solution and the desired concentration of active compound formulation are populated with 10 adult houseflies (Musca domestica).
After 2 days, the kill in % is determined. 100% means that all of the flies have been killed; 0% means that none of the flies have been killed.

Regarding `CCS(=O)(=O)c1c(-c2nc3ccc(C(F)(F)F)cn3n2)nc2cc(NC(=O)C3CC3)ccn12` [Example I-09], the “efficacy (kill)” value in the series on Ctenocephalides felis [1] is recorded as 95%. For the same compound, in the series on Myzus persicae [2], the pest or weed control at 4 ppm was 100%. The compound further came in with an efficacy in the series with Boophilus microplus of 100%.

For the compound `CCS(=O)(=O)c1c(-c2nc3ccc(C(F)(F)F)cn3n2)nc2cc(C(F)(F)F)ccn12` [Example I-01], the efficacy in the series with Spodoptera frugiperda and in the series on Ctenocephalides felis [4] was 100% throughout. For the same compound, the “efficacy (kill)” value with Ctenocephalides felis [1] and with Lucilia cuprina was 100% throughout. Also, the Emax at 20 ppm stood at 90% in the series on Myzus persicae [3], 99% with Aphis gossypii and 95% with Myzus persicae [6]. The pest or weed control at 20 g/ha in the series on Phaedon cochleariae was 100%. Besides, in the series on Phaedon cochleariae, the pest or weed control at 100 g/ha turned out to be 100%. The pest or weed control at 4 ppm with Myzus persicae [2] came to 100%. Besides, in the series with Nilaparvata lugens, the Emax at 500 g/ha was found to be 80%. Also, in [5], the chromatographic logP was 2.41.

Regarding `CCS(=O)(=O)c1cc2ccccc2nc1-c1nc2cc(C(F)(F)F)ncn2n1` [Example I-05], the efficacy in the series with Spodoptera frugiperda is 100%; in the series on Rhipicephalus sanguineus, 80%; in the series on Ctenocephalides felis [4] it was 100%. Besides, the “efficacy (kill)” value in the series on Ctenocephalides felis [1] came out at 95%; with Lucilia cuprina, 100%. The pest or weed control at 20 g/ha in the series with Phaedon cochleariae is 100%. Also, the figures for the pest or weed control at 100 g/ha in the series on Phaedon cochleariae and with Myzus persicae [7] were 100% and 90%, respectively. The pest or weed control at 4 ppm in the series on Myzus persicae [2] turned out to be 100%.

On to `CCS(=O)(=O)c1c(-c2nc3ccc(C(F)(F)F)cn3n2)nc2cc(I)ccn12` [Example I-12], for which the efficacy with Spodoptera frugiperda and in the series with Ctenocephalides felis [4] was 100% throughout. In the series with Phaedon cochleariae, the pest or weed control at 20 g/ha is 100%. Also, the pest or weed control at 100 g/ha with Phaedon cochleariae was 100%. Besides, the pest or weed control at 4 ppm in the series on Myzus persicae [2] is 90%. Besides, the “efficacy (kill)” value turned out to be 100% with Lucilia cuprina and 90% with Musca domestica.
